# Read-outs that look alike come from different tables or passages of the source.
# Key:
# SARS-CoV-2 M^PRO = SARS-CoV-2 M^PRO (Severe acute respiratory syndrome coronavirus 2, UniProt P0DTD1); assay: biochemical; assay type: biochemical
# SARS-CoV-2 = assay: In vitro antiviral cell-based assay (live SARS-CoV-2 IFA) in Vero cells; details: Severe acute respiratory syndrome coronavirus 2, MOI ~0.0125, 24 hpi
# in vitro = details: African green monkey
# [1] = In vitro potency data, 30 min pre-incubation, 25 nM M^pro, 25 µM substrate, read-out: IC50
SMILES,IC50 (SARS-CoV-2 M^PRO; [1]) [nM],also measured
"O=C(NC1CCC(F)(F)CC1)C(c1cncnc1)N(C(=O)CCl)c1ccc(-c2cncs2)cc1 (single isomer, unassigned) [2-Chloro-N-(2-((4,4-difluorocyclohexyl)amino)-2-oxo-1-(pyrimidin-5-yl)ethyl)-N-(4-(thiazol-5-yl)phenyl)acetamide]",50,"IC50 (SARS-CoV-2 M^PRO; SARS-CoV-2 M^pro IC50′ nM, General summary table): 50 nM; EC50 (SARS-CoV-2): 11.4 µM"
"O=C(NC1CCC(F)(F)CC1)C(c1cncnc1)N(C(=O)CCl)c1ccc(-c2ccno2)cc1 (single isomer, unassigned) [INSCoV-600J(1), 2-Chloro-N-(2-((4,4-difluorocyclohexyl)amino)-2-oxo-1-(pyrimidin-5-yl)ethyl)-N-(4-(isoxazol-5-yl)phenyl)acetamide]",63,EC50 (SARS-CoV-2): 14.2 µM
"O=C(NC1CCC(F)(F)CC1)[C@@H](c1cncnc1)N(C(=O)[C@@H](F)Cl)c1ccc(-c2ccno2)cc1 (single isomer, unassigned) [INSCoV-614A(2A), 2-Chloro-N-(2-((4,4-difluorocyclohexyl)amino)-2-oxo-1-(pyrimidin-5-yl)ethyl)-2-fluoro-N-(4-(isoxazol-5-yl)phenyl)acetamide]",180,EC50 (SARS-CoV-2): 4.25 µM
"CCN(CC)CCCC(C)Nc1ccnc2cc(Cl)ccc12 (stereo not shown) [Chloroquine, chloroquine, reference compound]",–,EC50 (SARS-CoV-2): 7.35 µM
"N#Cc1cc(OC(F)(F)F)ccc1N(C(=O)CCl)C(C(=O)NC1CCC(F)(F)CC1)c1cncnc1 (stereo not shown) [INSCoV-517A, 2-chloro-N-(2-cyano-4-(trifluoromethoxy)phenyl)-N-(2-((4,4-difluorocyclohexyl)amino)-2-oxo-1-(pyrimidin-5-yl)ethyl)acetamide]",90,EC50 (SARS-CoV-2): 11.1 µM
N#Cc1cc(OC(F)(F)F)ccc1N(C(=O)CCl)C(C(=O)NC1CCCCC1)c1cccnc1 (stereo not shown) [INSCoV-517],240,CC50 at 24 h (in vitro): > 50000 nM; EC50 (SARS-CoV-2): 3.22 µM
O=C(NC1CC2(C1)CS(=O)(=O)C2)C(c1cncnc1)N(C(=O)CCl)c1ccc(-c2cnco2)cc1 (stereo not shown) [INSCoV-600H],660,–
"O=C(NC1CCC(F)(F)CC1)C(c1cncnc1)N(C(=O)CCl)c1ccc(-c2ccno2)cc1 (stereo not shown) [INSCoV-600J, 2-Chloro-N-(2-((4,4-difluorocyclohexyl)amino)-2-oxo-1-(pyrimidin-5-yl)ethyl)-N-(4-(isoxazol-5-yl)phenyl)acetamide]",110,–
"O=C(NC1CCC(F)(F)CC1)C(c1cncnc1)N(C(=O)CCl)c1ccc(-c2cncs2)cc1 (stereo not shown) [INSCoV-600K, 2-Chloro-N-(2-((4,4-difluorocyclohexyl)amino)-2-oxo-1-(pyrimidin-5-yl)ethyl)-N-(4-(thiazol-5-yl)phenyl)acetamide]",78,EC50 (SARS-CoV-2): 14.5 µM
"O=C(NC1CCC(F)(F)CC1)C(c1cncnc1)N(C(=O)CCl)c1ccc(-c2ccncn2)cc1 (stereo not shown) [INSCoV-600L, 2-(N-(2-chloroacetyl)-4-pyrimidin-4-yl-anilino)-N-(4,4-difluorocyclohexyl)-2-pyrimidin-5-yl-acetamide]",450,–
"CN1CCC(NC(=O)C(c2cncnc2)N(C(=O)CCl)c2ccc(-c3cnco3)cc2)CC1 (stereo not shown) [INSCoV-600M, 2-(N-(2-chloroacetyl)-4-oxazol-5-yl-anilino)-N-(1-methyl-4-piperidyl)-2-pyrimidin-5-yl-acetamide]",500,–
Cc1cc(F)cc(F)c1NC(=O)C(c1cncnc1)N(C(=O)CCl)c1ccc(-c2cnco2)cc1 (stereo not shown) [INSCoV-600N],1060,–
O=C(NC1CCC(F)(F)CC1)[C@H](c1cncnc1)N(CCc1cccc(F)c1)C(=O)C1CO1 (stereo partly shown) [INSCoV-600Q(1)],22600,–
O=C(NC1CCC(F)(F)CC1)[C@@H](c1cncnc1)N(CCc1cccc(F)c1)C(=O)C1CO1 (stereo partly shown) [INSCoV-600Q(2)],2220,–
O=C(NC1CCC(F)(F)CC1)C(c1cncnc1)N(CCc1cccc(F)c1)C(=O)C1CO1 (stereo not shown) [INSCoV-600Q],6980,–
O=C(NC1CCC(F)(F)CC1)C(c1cncnc1)N(C(=O)[C@H]1CO1)c1ccc(-c2cnco2)cc1 (stereo partly shown) [INSCoV-600R(1)],19900,–
O=C(NC1CCC(F)(F)CC1)[C@H](c1cncnc1)N(C(=O)[C@H]1CO1)c1ccc(-c2cnco2)cc1 [INSCoV-600R(1A)],> 25000,–
O=C(NC1CCC(F)(F)CC1)C(c1cncnc1)N(C(=O)[C@@H]1CO1)c1ccc(-c2cnco2)cc1 (stereo partly shown) [INSCoV-600R(2)],6450,–
O=C(NC1CCC(F)(F)CC1)[C@@H](c1cncnc1)N(C(=O)[C@@H]1CO1)c1ccc(-c2cnco2)cc1 [INSCoV-600R(2B)],> 25000,–
O=C(NC1CCC(F)(F)CC1)C(c1cncnc1)N(C(=O)C1CO1)c1ccc(-c2cnco2)cc1 (stereo not shown) [INSCoV-600R],12800,–
Cc1cc(-c2cccnc2)cc(F)c1NC(=O)C(c1cncnc1)N(C(=O)CCl)c1ccc(-c2cnco2)cc1 (stereo not shown) [INSCoV-600X],1390,–

SMILES,IC50 (SARS-CoV-2 M^PRO; [1]) [nM],also measured
"O=C(NC1CCC(F)(F)CC1)C(c1cncnc1)N(C(=O)C1CO1)c1ccc(-c2ccno2)cc1 (stereo not shown) [INSCoV-600Y, N-(2-((4,4-Difluorocyclohexyl)Amino)-2-Oxo-1-(Pyrimidin-5-yl)Ethyl)-N-(4-(Isoxazol-5-yl)Phenyl)Oxirane-2-Carboxamide]",1990,–
CN(C)C(=O)C1CCCC(NC(=O)C(c2cncnc2)N(C(=O)CCl)c2ccc(-c3cnco3)cc2)C1 (stereo not shown) [INSCoV-601CA],1150,–
"O=C(NC1CCC(F)(F)CC1)C(c1ccnnc1)N(C(=O)CCl)c1ccc(-c2cncs2)cc1 (stereo not shown) [INSCoV-601F, 2-Chloro-N-(2-((4,4-Difluorocyclohexyl)Amino)-2-Oxo-1-(Pvridazin-4-vl)Ethyl)-N-(4-(Thiazol-5-vl)Phenyl)Acetamide]",130,–
"O=C(NC1CCC(F)(F)CC1)C(c1cnccn1)N(C(=O)CCl)c1ccc(-c2cncs2)cc1 (stereo not shown) [INSCoV-601G, 2-Chloro-N-(2-((4,4-difluorocyclohexyl)amino)-2-oxo-1-(pyrazin-2-yl)ethyl)-N-(4-(thiazol-5-yl)phenyl)acetamide]",80,EC50 (SARS-CoV-2): 10.2 µM
"O=C(NC1CCC(F)(F)CC1)C(c1cnccn1)N(C(=O)CCl)c1ccc(-c2ccns2)cc1 (stereo not shown) [INSCoV-601I, 2-Chloro-N-(2-((4,4-difluorocyclohexyl)amino)-2-oxo-1-(pyrazin-2-yl)ethyl)-N-(4-(isothiazol-5-yl)phenyl)acetamide]",62,EC50 (SARS-CoV-2): 11.1 µM
O=C(NC1CCC(F)(F)CC1)[C@H](c1ccnnc1)N(C(=O)CCl)c1ccc(-c2ccns2)cc1 [INSCoV-601J(2)],530,–
O=C(NC1CCC(F)(F)CC1)[C@@H](c1cncnc1)N(C(=O)CCl)c1ccc(-c2ccccc2)cc1 [INSCoV-601L],300,–
CC(=O)c1ccc(NC(=O)[C@@H](c2cnccn2)N(C(=O)CCl)c2ccc(-c3ccns3)cc2)[nH]1 [INSCoV-601M],1150,–
CC(C)c1cc(F)c(NC(=O)[C@@H](c2cncnc2)N(C(=O)CCl)c2ccc(-c3ccns3)cc2)c(F)c1 [INSCoV-601O],3060,–
"CC(C(=O)NC1CCC(F)(F)CC1)(c1cncnc1)N(C(=O)CCl)c1ccc(-c2ccno2)cc1 (stereo not shown) [INSCoV-601P, 2-(2-Chloro-N-(4-(isoxazol-5-yl)phenyl)acetamido)-N-(4,4-difluorocyclohexyl)-2-(pyrimidin-5-yl)propanamide]",380,–
O=C(NC1CCOC1)[C@H](c1cncnc1)N(C(=O)CCl)c1ccc(-c2cncs2)cc1 (stereo partly shown) [INSCoV-601R(1A)],–,"IC50 (SARS-CoV-2 M^PRO; In vitro potency data, 30 min pre-incubation, 25 nM M^pro, 25 µM substrate, listed as INSCoV-601R(lA), read-out: IC50): 140 nM"
O=C(NC1CCOC1)[C@H](c1cncnc1)N(C(=O)CCl)c1ccc(-c2cncs2)cc1 (stereo partly shown) [INSCoV-601R(1B)],–,"IC50 (SARS-CoV-2 M^PRO; In vitro potency data, 30 min pre-incubation, 25 nM M^pro, 25 µM substrate, listed as INSCoV-601R(lB), read-out: IC50): 440 nM"
O=C(NC1CCOC1)[C@H](c1cncnc1)N(C(=O)CCl)c1ccc(-c2cncs2)cc1 (stereo partly shown) [INSCoV-601R],120,–
O=C(NC1CCC(F)(F)C1)C(c1cncnc1)N(C(=O)CCl)c1ccc(-c2cncs2)cc1 (stereo not shown) [INSCoV-601S],90,–
COC(=O)c1ccc(NC(=O)[C@H](c2cncnc2)N(C(=O)CCl)c2ccc(-c3cncs3)cc2)[nH]1 [INSCoV-601T],170,–
N#CCC(=O)N(c1ccc(-c2cncs2)cc1)[C@H](C(=O)NC1CCC(F)(F)CC1)c1cncnc1 [INSCoV-612],23200,–
"O=C(NC1CCC(F)(F)CC1)C(c1cncnc1)N(C(=O)C(F)Cl)c1ccc(-c2cncs2)cc1 (stereo not shown) [INSCoV-614, 2-Chloro-N-(2-((4,4-difluorocyclohexyl)amino)-2-oxo-1-(pyrimidin-5-yl)ethyl)-2-fluoro-N-(4-(thiazol-5-yl)phenyl)acetamide]",330,–
O=C(NC1CCC(F)(F)CC1)C(c1cncnc1)N(C(=O)CF)c1ccc(-c2cncs2)cc1 (stereo not shown) [INSCoV-615],11400,–
C=C(F)C(=O)N(c1ccc(-c2cncs2)cc1)C(C(=O)NC1CCC(F)(F)CC1)c1cncnc1 (stereo not shown) [INSCoV-616],8360,–
CC1(C)OCc2cc(N(C(=O)CCl)C(C(=O)Nc3cncc4ccccc34)c3ccno3)cnc21 (stereo not shown) [INSCoV-704],19400,–
"CNC(=O)c1cc(C)c(NC(=O)C(c2cncnc2)N(C(=O)CCl)c2ccc(-c3cnco3)cc2)c(Cl)c1 (stereo not shown) [INSCoV-6000, 3-chloro-4-[[2-(N-(2-chloroacetyl)-4-oxazol-5-yl-anilino)-2-pyrimidin-5-yl-acetyl]amino]-N,5-dimethyl-benzamide]",1090,–

# — patent US20230174488A1 (priority 2020, published 2023)
